In article PMC11822212, “High-throughput screening identifies Aurora kinase B as a critical therapeutic target for Merkel cell carcinoma” (Nature Communications, 2025):
Like-named read-outs stand apart in the source and are kept apart here.

Legend:
MCC13 cells (VN-MCC) = test: qHTS cell viability (CellTiter-Glo, 72 h; primary and follow-up small molecule screen); format: cell-based, human
MCC26 cells (VN-MCC) = test: as above; format: cell-based, human
UISO cells (VN-MCC) = test: as above; format: cell-based, human
WAGA cells (VP-MCC) = test: as above; format: cell-based, human
MKL-1 cells (VP-MCC) = test: as above; format: cell-based, human
MKL-2 cells (VP-MCC) = test: as above; format: cell-based, human
HACAT cells = test: qHTS cell viability (CellTiter-Glo, 72 h; primary screen), control cell line; format: cell-based, human
HEK293T cells = test: as above; format: cell-based, human
NIH-3T3 cells = test: as above; format: cell-based, mouse
CRL-7250 cells = test: as above; format: cell-based
[1] = tested on: MCC cell lines (WAGA, MKL-1, MKL-2, MCC13, MCC26, UISO); test: qHTS cell viability, all six MCC cell lines as a group (mean AUC, MCC.avg); format: cell-based, human
[2] = tested on: VP-MCC cell lines (WAGA, MKL-1, MKL-2); test: qHTS cell viability, VP-MCC cell lines as a group (mean AUC, VP.MCC.avg); format: cell-based, human
[3] = tested on: VN-MCC cell lines (MCC13, MCC26, UISO); test: qHTS cell viability, VN-MCC cell lines as a group (mean AUC, VN.MCC.avg); format: cell-based, human
[4] = tested on: control cell lines (HACAT, HEK293T, CRL-7250, NIH-3T3); test: qHTS cell viability, control cell lines as a group (mean AUC, Control.avg); format: cell-based
[5] = tested on: six MCC cell lines and four control cell lines; test: qHTS cell viability, all 10 cell lines screened; format: cell-based
[6] = MIPE library, 11-point DRC, sheet S2E
[7] = MIPE library, 11-point DRC, control cell line, sheet S2E
[8] = NPC library, 8-point DRC, area under dose-response curve
[9] = NPC library, 8-point DRC, control cell line

CC#C[C@]1(O)CC[C@H]2[C@@H]3CCC4=CC(=O)CCC4=C3[C@@H](c3ccc(N(C)C)cc3)C[C@@]21C [Mifepristone]
MCC13_AUC (MCC13 cells (VN-MCC); [6]): 450.219
Area under the dose-response curve (AUC) MCC13 Replicate 1 (MCC13 cells (VN-MCC); follow-up screen, MCC13, replicate 1): 516.1
Area under the dose-response curve (AUC) MCC13 Replicate 2 (MCC13 cells (VN-MCC); follow-up screen, MCC13, replicate 2): 505.4
Area under the dose-response curve (AUC) MCC13 Replicate 3 (MCC13 cells (VN-MCC); follow-up screen, MCC13, replicate 3): 486.2
MCC26_AUC (MCC26 cells (VN-MCC); [6]): 459.158
Area under the dose-response curve (AUC) MCC26 Replicate 1 (MCC26 cells (VN-MCC); follow-up screen, MCC26, replicate 1): 467.8
Area under the dose-response curve (AUC) MCC26 Replicate 2 (MCC26 cells (VN-MCC); follow-up screen, MCC26, replicate 2): 425.4
Area under the dose-response curve (AUC) MCC26 Replicate 3 (MCC26 cells (VN-MCC); follow-up screen, MCC26, replicate 3): 483.6
UISO_AUC (UISO cells (VN-MCC); [6]): 367.837
Area under the dose-response curve (AUC) UISO Replicate 1 (UISO cells (VN-MCC); follow-up screen, UISO, replicate 1): 472.5
Area under the dose-response curve (AUC) UISO Replicate 2 (UISO cells (VN-MCC); follow-up screen, UISO, replicate 2): 481.5
Area under the dose-response curve (AUC) UISO Replicate 3 (UISO cells (VN-MCC); follow-up screen, UISO, replicate 3): 472.0
WAGA_AUC (WAGA cells (VP-MCC); [6]): 291.204
Area under the dose-response curve (AUC) WAGA Replicate 1 (WAGA cells (VP-MCC); follow-up screen, WAGA, replicate 1): 532.2
Area under the dose-response curve (AUC) WAGA Replicate 2 (WAGA cells (VP-MCC); follow-up screen, WAGA, replicate 2): 542.6
Area under the dose-response curve (AUC) WAGA Replicate 3 (WAGA cells (VP-MCC); follow-up screen, WAGA, replicate 3): 501.4
MKL1_AUC (MKL-1 cells (VP-MCC); [6]): 274.173
Area under the dose-response curve (AUC) MKL-1 Replicate 1 (MKL-1 cells (VP-MCC); follow-up screen, MKL-1, replicate 1): 491.0
Area under the dose-response curve (AUC) MKL-1 Replicate 2 (MKL-1 cells (VP-MCC); follow-up screen, MKL-1, replicate 2): 482.0
Area under the dose-response curve (AUC) MKL-1 Replicate 3 (MKL-1 cells (VP-MCC); follow-up screen, MKL-1, replicate 3): 520.5
MKL2_AUC (MKL-2 cells (VP-MCC); [6]): 266.162
Area under the dose-response curve (AUC) MKL-2 Replicate 1 (MKL-2 cells (VP-MCC); follow-up screen, MKL-2, replicate 1): 494.5
Area under the dose-response curve (AUC) MKL-2 Replicate 2 (MKL-2 cells (VP-MCC); follow-up screen, MKL-2, replicate 2): 503.2
Area under the dose-response curve (AUC) MKL-2 Replicate 3 (MKL-2 cells (VP-MCC); follow-up screen, MKL-2, replicate 3): 499.4
HACAT_AUC (HACAT cells; [7]): 471.301
HEK293T_AUC (HEK293T cells; [7]): 403.35
NIH3T3_AUC (NIH-3T3 cells; [7]): 475.344
CRL7250_AUC (CRL-7250 cells; [7]): 445.154
MCC_Avg_AUC ([1]; MIPE library, mean AUC of six MCC cell lines, sheet S2E): 351.459
Control-VP-MCC ([2]; MIPE library, Control AUC minus VP-MCC AUC (therapeutic window), sheet S2E): 171.607
VP-MCC_Avg_AUC ([2]; MIPE library, mean AUC of VP-MCC cell lines, sheet S2E): 277.18
Control-VN-MCC ([3]; MIPE library, Control AUC minus VN-MCC AUC (therapeutic window), sheet S2E): 23.0495
VN-MCC_Avg_AUC ([3]; MIPE library, mean AUC of VN-MCC cell lines, sheet S2E): 425.738
Control_Avg_AUC ([4]; MIPE library, mean AUC of control cell lines, sheet S2E): 448.787
Control-MCC ([5]; MIPE library, Control AUC minus MCC AUC (therapeutic window), sheet S2E): 97.3285

CCC(=O)O[C@@H]1C=C2CCC3C(CCC4(C)C3CC[C@@H]4OC(=O)CC)C2CC1 (some centres unmarked) [Bolandiol dipropionate]
MCC13_AUC (MCC13 cells (VN-MCC)): 478.899
MCC26_AUC (MCC26 cells (VN-MCC)): 482.222
UISO_AUC (UISO cells (VN-MCC)): 526.911
WAGA_AUC (WAGA cells (VP-MCC)): 383.532
MKL1_AUC (MKL-1 cells (VP-MCC)): 411.821
MKL2_AUC (MKL-2 cells (VP-MCC)): 411.71
HACAT_AUC (HACAT cells): 443.174
HEK293T_AUC (HEK293T cells): 471.071
NIH3T3_AUC (NIH-3T3 cells): 491.81
CRL7250_AUC (CRL-7250 cells): 480.859
MCC_Avg_AUC [1]: 449.182
Control-VP-MCC [2]: 69.3739
VP-MCC_Avg_AUC [2]: 402.354
Control-VN-MCC [3]: -24.2823
VN-MCC_Avg_AUC [3]: 496.011
Control_Avg_AUC [4]: 471.728
Control-MCC [5]: 22.5458

Nc1ccc(C(=O)NCC(=O)O)cc1 [Aminohippuric acid]
MCC13_AUC (MCC13 cells (VN-MCC); [8]): 391.573
MCC13_AUC (MCC13 cells (VN-MCC); NPC library, qHTS dose-response AUC, MCC13): 391.574
MCC13_AUC (MCC13 cells (VN-MCC); area under the dose-response curve, MCC13 cells, AUC<450 = reduced viability): 391.574
MCC26_AUC (MCC26 cells (VN-MCC); [8]): 410.554
MCC26_AUC (MCC26 cells (VN-MCC); NPC library, qHTS dose-response AUC, MCC26): 410.554
MCC26_AUC (MCC26 cells (VN-MCC); area under the dose-response curve, MCC26 cells, AUC<450 = reduced viability): 410.554
UISO_AUC (UISO cells (VN-MCC); [8]): 434.505
UISO_AUC (UISO cells (VN-MCC); NPC library, qHTS dose-response AUC, UISO): 434.505
UISO_AUC (UISO cells (VN-MCC); area under the dose-response curve, UISO cells, AUC<450 = reduced viability): 434.505
WAGA_AUC (WAGA cells (VP-MCC); [8]): 448.077
WAGA_AUC (WAGA cells (VP-MCC); NPC library, qHTS dose-response AUC, WAGA): 448.077
WAGA_AUC (WAGA cells (VP-MCC); area under the dose-response curve, WAGA cells, AUC<450 = reduced viability): 448.077
MKL1_AUC (MKL-1 cells (VP-MCC); [8]): 395.372
MKL1_AUC (MKL-1 cells (VP-MCC); NPC library, qHTS dose-response AUC, MKL1): 395.372
MKL1_AUC (MKL-1 cells (VP-MCC); {}): 395.372
MKL2_AUC (MKL-2 cells (VP-MCC); [8]): 407.303
MKL2_AUC (MKL-2 cells (VP-MCC); NPC library, qHTS dose-response AUC, MKL2): 407.303
MKL2_AUC (MKL-2 cells (VP-MCC); area under the dose-response curve, MKL-2 cells, AUC<450 = reduced viability): 407.303
HACAT_AUC (HACAT cells; [9]): 481.404
HACAT_AUC (HACAT cells; NPC library, qHTS dose-response AUC, HACAT control): 481.404
HACAT_AUC (HACAT cells; area under the dose-response curve, HACAT control cells, AUC<450 = reduced viability): 481.404
HEK293T_AUC (HEK293T cells; [9]): 467.378
HEK293T_AUC (HEK293T cells; NPC library, qHTS dose-response AUC, HEK293T control): 467.377
HEK293T_AUC (HEK293T cells; area under the dose-response curve, HEK293T control cells, AUC<450 = reduced viability): 467.377
NIH3T3_AUC (NIH-3T3 cells; [9]): 454.303
NIH3T3_AUC (NIH-3T3 cells; NPC library, qHTS dose-response AUC, NIH3T3 control): 454.303
NIH3T3_AUC (NIH-3T3 cells; area under the dose-response curve, NIH3T3 control cells, AUC<450 = reduced viability): 454.303
CRL7250_AUC (CRL-7250 cells; [9]): 477.44
CRL7250_AUC (CRL-7250 cells; NPC library, qHTS dose-response AUC, CRL7250 control): 477.44
CRL7250_AUC (CRL-7250 cells; area under the dose-response curve, CRL7250 control cells, AUC<450 = reduced viability): 477.44
MCC_Avg_AUC ([1]; NPC library, mean AUC of all 6 MCC cell lines): 414.564
MCC_Avg_AUC ([1]; NPC library, mean AUC of six MCC cell lines): 414.564
Control-VP-MCC ([2]; Control AUC minus VP-MCC AUC): 53.2142
Control-VP-MCC ([2]; NPC library, Control AUC minus VP-MCC AUC (therapeutic window)): 53.2142
VP-MCC_Avg_AUC ([2]; NPC library, mean AUC of VP-MCC cell lines): 416.917
Control-VN-MCC ([3]; Control AUC minus VN-MCC AUC): 57.9205
Control-VN-MCC ([3]; NPC library, Control AUC minus VN-MCC AUC (therapeutic window)): 57.9205
VN-MCC_Avg_AUC ([3]; NPC library, mean AUC of VN-MCC cell lines): 412.211
Control_Avg_AUC ([4]; NPC library, mean AUC of control cell lines): 470.131
Control-MCC ([5]; NPC library, Control AUC minus MCC AUC (therapeutic window)): 55.5673
